Tests used:
[1] = tested on: passive cutaneous anaphylaxis; assay: passive cutaneous anaphylaxis test (PCA) in the rat, oral administration; format: in vivo; details: PCA test on the rat, oral administration 30 minutes before antigen challenge; for Activity: relative to Tranilast = 1
Description: The products of general formula (I) listed in Table 1 were subjected to a first pharmacological screening to evaluate their activity after oral administration in the passive cutaneous anaphylaxis test (PCA) in the rat in accordance with Goose J. and Blair A.M.J.N. (Immunology, 16, 749-760, 1969). Serum, obtained from rats actively sensitized with ovalbumin and suitably diluted, was injected intradermally into the shave back of male Sprague Dawley rats, and after 24 hours these were treated intravenously with a solution of ovalbumin and Evans blue. Thirty minutes after the antigen challenge, the animals were sacrificed and the diameter and intensity of the blue halo which has formed in the intradermal injection site was measured. The compounds according to the invention, and also tranilast (N-3ʹ, 4ʹ-dimethoxycinnamoyl) anthranilic acid) used as reference standard, were dissolved-suspended in suitable solvents (carboxymethylcellulose, gum arabic, DMSO etc.) and administered orally thirty minutes before the antigen challenge. Table 2 lists the ED₅₀ values and the relative confidence limits at p = 0.05.

[2] = tested on: passive cutaneous anaphylaxis; assay: passive cutaneous anaphylaxis test (PCA) in the rat, intraperitoneal administration; format: in vivo; details: ip, PCA test on the rat, 15 minutes before antigen challenge, versus control group
Description: The products of general formula (I) listed in Table 1 were subjected to a first pharmacological screening to evaluate their activity after oral administration in the passive cutaneous anaphylaxis test (PCA) in the rat in accordance with Goose J. and Blair A.M.J.N. (Immunology, 16, 749-760, 1969). Serum, obtained from rats actively sensitized with ovalbumin and suitably diluted, was injected intradermally into the shave back of male Sprague Dawley rats, and after 24 hours these were treated intravenously with a solution of ovalbumin and Evans blue. Thirty minutes after the antigen challenge, the animals were sacrificed and the diameter and intensity of the blue halo which has formed in the intradermal injection site was measured. Some of the compounds according to the invention were subjected to a further passive cutaneous anaphylaxis test evaluation to determine their efficiency after intraperitoneal administration at a dose of 100 mg/kg, fifteen minutes before the challenge. […]

SMILES | Activity [1] | inhibition at 100 mg/kg [2] [%] | ED₅₀ [1] [mmoles/kg/os]
CCOC(=O)c1cc(C)sc1NC(=O)c1cccc(OC)c1N [Compound 7, 3-THIOPHENE CARBOXYLIC ACID, 2[(2-AMINO-3-METHOXY BENZOYL)AMINO]-5-METHYL-ETHYL ESTER] | 450.7 | 31.9 | 
COc1cccc(C(=O)Nc2sc(C)cc2C(=O)O)c1N [Compound 16, 3-THIOPHENE CARBOXYLIC ACID, 2-[(2-AMINO-3-METHOXY BENZOYL)AMINO]-5-METHYL] | 41.0 |  | 
CCOC(=O)Cc1csc(NC(=O)c2cccc(OC)c2N)n1 [Compound 25, 4-THIAZOLE ACETIC ACID, 2-[(2-AMINO-3-METHOXY BENZOYL)AMINO], ETHYL ESTER] | 64.0 | 43.1 | 
CCOC(=O)c1cc(C)sc1NC(=O)c1cccc(OC)c1NC(C)=O [Compound 15, 3-THIOPHENE CARBOXYLIC ACID, 2-[(2-ACETYL AMINO-3-METHOXY BENZOYL)AMINO]-5-METHYL, ETHYL ESTER] | 24.6 |  | 0.013
CCOC(=O)c1cc(C)sc1NC(=O)c1cccc(OC)c1[N+](=O)[O-] [Compound 1, 3-thiophene carboxylic acid-2-[(2-nitro-3-methoxybenzoyl)amino]-5-methyl ethyl ester] | 1.5 | 59.4 | 0.21
CCOC(=O)C(O)c1csc(-n2c(=O)[nH]c3c(OC)cccc3c2=O)n1 (stereo not drawn) [Compound 36, 8-METHOXY-3-[[5-(α-HYDROXY ETHYL ACETATE)]-THIAZENYL]-2,4 QUINAZOLONE] | 5.9 | 40.7 | 0.054
CCOC(=O)Cc1csc(NC(=O)c2cc(C)ccc2N)n1 [Compound 37] | 213.3 | 88.4 | 
CCOC(=O)c1cc(C)sc1-n1c(=O)[nH]c2c(OC)cccc2c1=O [Compound 32, 8-METHOXY-3-[(3-ETHOXY CARBONYL-5-METHYL)-THIENYL]-2,4 QUINAZOLONE] | 4.0 | 52.7 | 0.08
COc1ccc(C=CC(=O)Nc2ccccc2C(=O)O)cc1OC [Tranilast, N-(3ʹ,4ʹ-dimethoxycinnamoyl) anthranilic acid, reference compound] | 1 |  | 0.32
CCOC(=O)C(=O)Nc1c(OC)cccc1C(=O)Nc1sc(C)cc1C(=O)OCC [Compound 18, 3-THIOPHENE CARBOXYLIC ACID, 2-[[2-AMINO(OXOACETIC ACID ETHYL ESTER)-3-METHOXY BENZOYL] AMINO]-5-METHYL, ETHYL ESTER] | 114.3 |  | 

Source: EP0261503B1, “Heterocyclic amido derivatives of substituted benzoic acids and therapeutic compositions which contain them as active principle” (VALEAS S.p.A. INDUSTRIA CHIMICA E FARMACEUTICA, priority 1986, dated 1988)
